Legend:
[1] = system: peripheral blood mononuclear cells from MF patients; test: ex vivo colony assay in methylcellulose, primary cells from MF patients; assay type: cell-based, human
Protocol: (§1) In order to study the effects of 9-ING-41 (alone and in combination with Ruxolitinib) on growth and proliferation in MF, ex vivo colony assays were conducted using primary cells from patients with previously untreated MF and normal bone marrow. The experiments were designed to assess the number, size, and morphology of stem/progenitor cells present in blood both with and without treatment.
(§2) Peripheral blood mononuclear cells from MF patients and bone marrow from healthy patients (control) were plated in methylcellulose in duplicate, containing cytokines, in the presence of either DMSO only, 9-ING-41 only, or a combination of 9-ING-41 and Ruxolitinib (0.05uM). Colonies were counted ten days later, and colony growth frequency, distribution, and morphology were calculated.

[2] = system: bone marrow from healthy patients; test: ex vivo colony assay in methylcellulose, normal bone marrow (control); assay type: cell-based, human; conditions: 9-ING-41 alone
Protocol: as §1, §2

[3] = system: renal cell carcinoma cell lines; conditions: renal cell carcinoma cell lines (Pal 2014); cited from earlier work

Q: Which results are given for `Cn1cc(C2=C(c3coc4ccc(F)cc34)C(=O)NC2=O)c2cc3c(cc21)OCO3` [9-ING-41, 3-(5-fluorobenzofuran-3-yl)-4-(5-methyl-5H-[1,3]dioxolo[4,5-f]indol-7-yl)pyrrole-2,5-dione]?
A: primitive granulocytic/erythroid/macrophage/monocyte (GEMM) colony growth ([1]; 9-ING-41 only, MF cases as compared to normal, counted after ten days, FIGS. 1A, 1D, 2A, 2C): increased relative to 9-ING-41 concentration; size and presence of primitive colonies ([1]; MF cases 1 and 2, Ruxolitinib 0.05 µM where combined): increase in very large, fully differentiated primitive colonies; presence of erythroid (BFU-E), granulocytic (CFU-G) and granulocytic/monocytic (CFU-GM) colonies ([1]; after addition of 9-ING-41, colonies counted ten days after plating, vs DMSO): remained proportionally the same; colony size [2]: modest increase in colony size; antiproliferative activity: cell-cycle effect [3]: G0-G1 and G2-M phase arrest
